Assay results taken from US20240302379A1, “METHODS FOR IDENTIFYING AND MONITORING INTERACTIONS OF PROTEIN WITH LIGAND” (Agency for Science, Technology and Research, priority 2020, published 2024).
“Also recorded” adds a separate entry of the source.

How the values were obtained:
[1] = molecular target: T1, DHFR-HiBiT (Homo sapiens, UniProt P00374); test: UCEP-Screen in HEK293 DHFR-HiBiT reporter cells (bioluminescence); format: binding; conditions: 20 μM, 10 minutes
T1 construct: expressed in transfected cells; host or cells: Flp-In T-Rex HEK293
T1 sequence (P00374 1-187): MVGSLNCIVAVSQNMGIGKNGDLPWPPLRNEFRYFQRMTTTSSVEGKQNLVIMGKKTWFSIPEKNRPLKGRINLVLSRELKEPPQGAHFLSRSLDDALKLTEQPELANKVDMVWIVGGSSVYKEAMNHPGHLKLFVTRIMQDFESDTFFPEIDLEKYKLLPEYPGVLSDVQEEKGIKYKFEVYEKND
Description: UCEP conditions such as denaturant concentration and dilution factor should be optimized for each target before performing any HTS. Here, Flp-In T-Rex cells were used for assay development. Cells were seeded into the 96-well clear bottom white microplate in growth medium and the expression of HiBiT-tagged protein was induced with tetracycline. Cells are treated with chemical of interest for specific duration, before incubation in PBS containing different concentrations of urea. Urea was then diluted with PBS. HiBiT lytic detection buffer containing LgBiT and substrate was then added. Bioluminescence was then measured.

[2] = tested on: K562 living cells; test: UCEP-ID MR experiment (proteome-wide target deconvolution by quantitative LC-MS/MS); conditions: K562, 10 μM, 10 minutes
[3] = molecular target: T2, HER2-HiBIT (Homo sapiens, UniProt P04626); test: UCEP in HER2-HiBIT reporter cells with 1% CHAPS (bioluminescence); format: binding; conditions: 3M to 5M urea
T2 construct: expressed in transfected cells; host or cells: reporter cells
T2 sequence (P04626 23-1255): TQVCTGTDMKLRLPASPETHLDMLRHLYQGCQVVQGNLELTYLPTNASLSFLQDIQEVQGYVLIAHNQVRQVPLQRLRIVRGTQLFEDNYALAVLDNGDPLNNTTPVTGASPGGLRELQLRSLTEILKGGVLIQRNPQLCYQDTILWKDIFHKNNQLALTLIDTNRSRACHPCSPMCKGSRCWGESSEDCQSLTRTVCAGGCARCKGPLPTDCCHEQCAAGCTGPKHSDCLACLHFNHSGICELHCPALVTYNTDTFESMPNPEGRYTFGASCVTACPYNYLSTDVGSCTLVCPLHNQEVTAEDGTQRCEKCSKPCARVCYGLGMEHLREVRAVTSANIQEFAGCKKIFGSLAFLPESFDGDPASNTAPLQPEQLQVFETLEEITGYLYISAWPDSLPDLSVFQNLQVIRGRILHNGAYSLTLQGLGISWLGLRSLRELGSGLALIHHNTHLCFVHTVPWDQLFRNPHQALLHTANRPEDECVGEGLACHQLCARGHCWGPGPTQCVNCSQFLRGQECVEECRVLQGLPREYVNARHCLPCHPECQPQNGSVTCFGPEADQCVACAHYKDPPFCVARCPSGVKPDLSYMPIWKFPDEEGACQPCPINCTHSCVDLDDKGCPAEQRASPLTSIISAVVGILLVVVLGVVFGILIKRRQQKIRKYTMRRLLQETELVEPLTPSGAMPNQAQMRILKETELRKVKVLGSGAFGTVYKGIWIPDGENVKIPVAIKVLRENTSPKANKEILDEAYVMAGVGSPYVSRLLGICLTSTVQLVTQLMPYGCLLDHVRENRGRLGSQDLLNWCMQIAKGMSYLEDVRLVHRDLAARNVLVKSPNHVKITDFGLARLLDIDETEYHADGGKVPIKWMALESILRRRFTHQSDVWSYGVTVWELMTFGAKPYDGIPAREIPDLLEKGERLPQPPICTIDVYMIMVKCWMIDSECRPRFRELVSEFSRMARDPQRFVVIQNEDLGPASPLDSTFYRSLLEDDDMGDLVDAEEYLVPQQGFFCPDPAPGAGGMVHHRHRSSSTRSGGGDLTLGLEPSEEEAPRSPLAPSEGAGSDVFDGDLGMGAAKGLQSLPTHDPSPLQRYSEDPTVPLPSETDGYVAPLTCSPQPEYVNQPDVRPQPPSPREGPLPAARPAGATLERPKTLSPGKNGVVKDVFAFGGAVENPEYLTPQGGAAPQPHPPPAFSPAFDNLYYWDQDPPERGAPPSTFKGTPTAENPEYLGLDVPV
Description: In the Flp-In T-Rex system, modified pENTR1A plasmids, entry vectors, are used to clone protein of interest. pENTR1A plasmids are modified to include thirty-three nucleotide sequences of HiBiT for tagging protein of interest at either N- or C terminus. A HiBiT-tagged protein of interest is transferred to one of gateway destination vectors, pFRT/TO/DEST or pEF5/FRT/V5-DEST, via gateway LR reaction. Flp-In T-Rex HEK293 cells are transfected with the final destination vector that include HiBiT-tagged gene of interest and pOG44 vector expressing Flp recombinase. Cells are selected with Hygromycin and Blasticidin to remove untransformed cells. In the CRISPR system, the ribonucleoprotein complex including Cas9, crRNA, tracrRNA is formed in vitro. Cells are electroporated to deliver the Cas9 ribonucleoprotein complex along with a single-stranded donor oligonucleotide. Next day, cells are sorted as a single cell into a transparent 96-well tissue culture microplate and incubated until they became confluent.
UCEP conditions such as denaturant concentration and dilution factor should be optimized for each target before performing any HTS. Here, Flp-In T-Rex cells were used for assay development. Cells were seeded into the 96-well clear bottom white microplate in growth medium and the expression of HiBiT-tagged protein was induced with tetracycline. […] Bioluminescence was then measured. […]

| SMILES | DHFR-HiBiT protein stabilization upon UCEP [1] | other results |
| --- | --- | --- |
| CNC(=O)c1ccc(N2C(=S)N(c3ccc(C#N)c(C(F)(F)F)c3)C(=O)C2(C)C)cc1F [Enzalutamide] | did not significantly change |  |
| CN(Cc1cnc2nc(N)nc(N)c2n1)c1ccc(C(=O)N[C@@H](CCC(=O)O)C(=O)O)cc1 [MTX, methotrexate] |  | Binding targets identified by UCEP-ID [2]: DHFR |
| CN[C@@H]1C[C@H]2O[C@@](C)([C@@H]1OC)n1c3ccccc3c3c4c(c5c6ccccc6n2c5c31)C(=O)NC4 [Staurosporine] | did not significantly change |  |
| Cc1cc(Nc2ncnc3ccc(NC4=NC(C)(C)CO4)cc23)ccc1Oc1ccn2ncnc2c1 [Tucatinib] |  | Stabilization of HER2-HiBIT (fold change of bioluminescence vs control) [3]: maximum stabilization of HER2 at 3M urea; also recorded: increased stability |
